Results reported in patent US12018023B2 (NERVIANO MEDICAL SCIENCES S.R.L., priority 2018, dated 2024).

Legend:
[1] = target: T1, IDH1^R132H homodimer enzyme (Homo sapiens, UniProt O75874, R132H); experiment: NADPH depletion assay, IDH1 R132H; type: biochemical
T1 construct: purchased not specified
Outline: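 IDH1 R132H enzyme (8 nM as diluted) in Tris-HCl pH 7.6 with 10 mM MgCl2, 0.001% Triton X-100 and 4 mM β-mercaptoethanol is preincubated 15 min at RT with compound. Substrate mix (12 uM NADPH, 3.4 mM α-ketoglutarate) is added for 60 min; remaining NAD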

IDH1^R132C = target: T2, IDH1^R132C (Homo sapiens, UniProt O75874, R132C); experiment: NADPH depletion assay, IDH1 R132C; type: biochemical
T2 construct: purchased not specified
T2 sequence (O75874 whole entry R132C): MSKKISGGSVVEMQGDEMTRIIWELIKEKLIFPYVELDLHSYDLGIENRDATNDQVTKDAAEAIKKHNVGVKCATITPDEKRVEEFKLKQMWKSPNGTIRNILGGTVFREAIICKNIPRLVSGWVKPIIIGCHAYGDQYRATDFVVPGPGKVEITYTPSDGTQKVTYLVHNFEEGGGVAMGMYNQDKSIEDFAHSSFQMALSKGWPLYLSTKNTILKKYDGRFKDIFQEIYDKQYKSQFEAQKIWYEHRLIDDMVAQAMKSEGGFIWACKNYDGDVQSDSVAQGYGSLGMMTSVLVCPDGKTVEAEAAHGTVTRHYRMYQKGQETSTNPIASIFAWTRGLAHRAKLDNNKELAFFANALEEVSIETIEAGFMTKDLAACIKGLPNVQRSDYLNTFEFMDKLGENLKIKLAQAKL
Outline: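 Fluorescence readout (Ex544/Em590) of NADPH left after diaphorase/resazurin addition. Alpha-ketoglutarate 0.14 mM final, enzyme 2 nM final; compound preincubation 15 min, then 60 min reaction, both at room temperature, pH 7.6 Tris buffer.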

IDH2^R172K = target: T3, IDH2^R172K (Homo sapiens, UniProt P48735, R172K); experiment: NADPH depletion assay, IDH2 R172K; type: biochemical
T3 construct: purchased not specified
T3 sequence (P48735 40-452 R172K): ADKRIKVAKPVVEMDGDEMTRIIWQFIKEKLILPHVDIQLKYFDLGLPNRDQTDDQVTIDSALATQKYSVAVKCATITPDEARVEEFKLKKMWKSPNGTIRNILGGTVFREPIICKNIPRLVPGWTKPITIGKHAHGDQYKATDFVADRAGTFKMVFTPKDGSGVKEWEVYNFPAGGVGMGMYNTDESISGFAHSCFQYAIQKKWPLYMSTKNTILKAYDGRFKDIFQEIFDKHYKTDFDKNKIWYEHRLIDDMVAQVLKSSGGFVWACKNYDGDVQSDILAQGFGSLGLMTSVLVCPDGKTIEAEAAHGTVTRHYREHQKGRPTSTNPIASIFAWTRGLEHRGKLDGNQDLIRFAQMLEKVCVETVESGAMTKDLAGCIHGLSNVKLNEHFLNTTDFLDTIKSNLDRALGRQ
Outline: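 This NADPH depletion assay measures NADPH left after conversion of alpha-ketoglutarate (0.55 mM final) by 16 nM IDH2 R172K over 60 min at room temperature, after a 15 min compound preincubation in pH 7.6 Tris buffer. Substrate mix held 12 μM NADPH. Diaphorase/resazurin gave the fluorescence read-out at 544/590 nm.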

IDH1WT enzyme = target: T4, IDH1WT enzyme (Homo sapiens, UniProt O75874); experiment: Enzymatic assay for IDH1 wild-type (NADPH forming assay); type: biochemical
T4 construct: purchased not specified
T4 sequence (O75874 whole entry): as the sequence (O75874 whole entry R132C) above, with C132R counted along it
Outline: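 Compounds (10-point 1:3 series from 1 mM in DMSO stock) preincubated 15 min at RT with 0.016 nM enzyme in Tris-HCl pH 7.6, NaCl, MgCl2, Triton X-100, β-mercaptoethanol. Started with 400 μM NADP+, 40 μM isocitrate, diaphorase, 7 μM resazurin (Substrate Mix concentrations); resorufin fluorescence Ex544/Em590 read continuously.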

U87MG_IDH1R132H = experiment: Cellular 2-HG production assay, U87-MG-IDH1 R132H; type: cell-based; details: inhibition of 2HG production, 72 hr incubation, LC-MS/MS
Outline: (§1)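 Cells in E-MEM/10% FCS (G418 500 μg/mL for the transfected U87-MG line) at 500 per well got compound 24 h after seeding and were incubated 72 h at 37 °C. Medium 2-HG was measured by LC-MS/MS with 2-HG-d3 internal standard; IC50 came from sigmoidal fitting versus controls.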

HT-1080 (IDH1^R132C) = experiment: Cellular 2-HG production assay, HT-1080; type: cell-based; details: Homo sapiens, HT-1080, 72 h, inhibition of 2HG production, 72 hr incubation, LC-MS/MS; read-out: HT1080 2-HG IC50
Outline: as §1

T1 sequence (O75874 whole entry R132H): as the sequence (O75874 whole entry R132C) above, with C132H counted along it

SMILES | IC50 [1] [nM] | IC50 (IDH1^R132C) [nM] | IC50 (IDH2^R172K) [nM] | IC50 (IDH1WT enzyme) [nM] | IC50 (U87MG_IDH1R132H) [nM] | IC50 (HT-1080 (IDH1^R132C)) [nM]
C=CC(=O)N1CCN([C@H](CC)c2ccc([C@H](C)Nc3ncc4ccc(=O)n(C(C)C)c4n3)cc2)CC1 [cpd 228, 2-{[(1S)-1-{4-[(1R)-1-(4-acryloylpiperazin-1-yl)propyl]phenyl}ethyl]amino}-8-(propan-2-yl)pyrido[2,3-d]pyrimidin-7(8H)-one] | 2 | 2 | 25 | 27.3 | 0.6 | 0.8
C=CC(=O)N1CCN([C@@H](CC2CC2)c2ccc([C@H](C)Nc3ncc4ccc(=O)n(C(C)C)c4n3)cc2)CC1 [cpd 230, 2-{[(1S)-1-{4-[(1S)-1-(4-acryloylpiperazin-1-yl)-2-cyclopropylethyl]phenyl}ethyl]amino}-8-(propan-2-yl) pyrido [2,3-d]pyrimidin-7(8H)-one] | 1 | 1 | 11 | 39 | 0.4 | 0.4
